In publication PMC10340592, “Extraction Efficiency and Alpha-Glucosidase Inhibitory Activities of Green Tea Catechins by Different Infusion Methods” (Foods, 2023):

Tests used:
rat alpha-glucosidase = assay: Inhibitory activity on rat alpha-glucosidase (rat intestinal acetone powder enzyme, maltose substrate, glucose read-out); assay type: biochemical; conditions: mean ± SD
Experimental: Inhibitory activity on rat alpha-glucosidase was measured as described previously with some modification. Rat alpha-glucosidase protein solution was extracted from rat intestinal acetone powders using the ultrasonication method. Briefly, 100 mg of intestinal acetone powders from rats were added to 1.0 mL of a 0.1 M maleic acid/disodium maleate buffer solution at pH 6.0. Then, one cycle of 30 s of ultrasonication and 30 s of break were repeated 6 times in ice-cold water, and the residue was separated by centrifugation (3000 rpm, 30 min, 4 °C). The supernatant was collected as the enzyme solution for experiments. Then, 50 µL of 4% maltose (w/v) and 25 µL of sample solution (GTEs or catechins) were added to a microtube and preincubated at 37 °C for 3 min. After that, 25 µL of the above enzyme solution was added and incubated at 37 °C for 30 min. Consequently, 400 µL of ultrapure water was added and inactivated at 100 °C for 4 min. After 100 µL of the inactivated reaction solution and 150 µL of color reagent (LabAssay™ Glucose kit) were mixed, the glucose contents (mg/dL) were measured at 505 nm through the spectrometer (Infinite 200 Pro MPlex, Tecan Ltd., Männedorf, Switzerland) according to the manufacturer’s instructions with the standard glucose curve. […] The inhibitory activity of each sample was calculated as follows:Inhibitory activity (%) = 100 − {(Cs − Csb)/(Cc − Cb)} × 100 • Cc: Glucose content of the negative control; • Cb: Glucose content of the blank; • Cs: Glucose content of the sample; • Csb: Glucose content of the sample blank.

human alpha-glucosidase = target: T1, human alpha-glucosidase (Homo sapiens, UniProt P14410); assay: Inhibitory activity on human alpha-glucosidase in differentiated Caco-2 cells (maltose substrate); assay type: cell-based; conditions: mean ± SD
T1 construct: cultured for 14 days to differentiate into small intestinal epithelial-like cells; host or cells: differentiated Caco-2 cells
T1 sequence (P14410 whole entry): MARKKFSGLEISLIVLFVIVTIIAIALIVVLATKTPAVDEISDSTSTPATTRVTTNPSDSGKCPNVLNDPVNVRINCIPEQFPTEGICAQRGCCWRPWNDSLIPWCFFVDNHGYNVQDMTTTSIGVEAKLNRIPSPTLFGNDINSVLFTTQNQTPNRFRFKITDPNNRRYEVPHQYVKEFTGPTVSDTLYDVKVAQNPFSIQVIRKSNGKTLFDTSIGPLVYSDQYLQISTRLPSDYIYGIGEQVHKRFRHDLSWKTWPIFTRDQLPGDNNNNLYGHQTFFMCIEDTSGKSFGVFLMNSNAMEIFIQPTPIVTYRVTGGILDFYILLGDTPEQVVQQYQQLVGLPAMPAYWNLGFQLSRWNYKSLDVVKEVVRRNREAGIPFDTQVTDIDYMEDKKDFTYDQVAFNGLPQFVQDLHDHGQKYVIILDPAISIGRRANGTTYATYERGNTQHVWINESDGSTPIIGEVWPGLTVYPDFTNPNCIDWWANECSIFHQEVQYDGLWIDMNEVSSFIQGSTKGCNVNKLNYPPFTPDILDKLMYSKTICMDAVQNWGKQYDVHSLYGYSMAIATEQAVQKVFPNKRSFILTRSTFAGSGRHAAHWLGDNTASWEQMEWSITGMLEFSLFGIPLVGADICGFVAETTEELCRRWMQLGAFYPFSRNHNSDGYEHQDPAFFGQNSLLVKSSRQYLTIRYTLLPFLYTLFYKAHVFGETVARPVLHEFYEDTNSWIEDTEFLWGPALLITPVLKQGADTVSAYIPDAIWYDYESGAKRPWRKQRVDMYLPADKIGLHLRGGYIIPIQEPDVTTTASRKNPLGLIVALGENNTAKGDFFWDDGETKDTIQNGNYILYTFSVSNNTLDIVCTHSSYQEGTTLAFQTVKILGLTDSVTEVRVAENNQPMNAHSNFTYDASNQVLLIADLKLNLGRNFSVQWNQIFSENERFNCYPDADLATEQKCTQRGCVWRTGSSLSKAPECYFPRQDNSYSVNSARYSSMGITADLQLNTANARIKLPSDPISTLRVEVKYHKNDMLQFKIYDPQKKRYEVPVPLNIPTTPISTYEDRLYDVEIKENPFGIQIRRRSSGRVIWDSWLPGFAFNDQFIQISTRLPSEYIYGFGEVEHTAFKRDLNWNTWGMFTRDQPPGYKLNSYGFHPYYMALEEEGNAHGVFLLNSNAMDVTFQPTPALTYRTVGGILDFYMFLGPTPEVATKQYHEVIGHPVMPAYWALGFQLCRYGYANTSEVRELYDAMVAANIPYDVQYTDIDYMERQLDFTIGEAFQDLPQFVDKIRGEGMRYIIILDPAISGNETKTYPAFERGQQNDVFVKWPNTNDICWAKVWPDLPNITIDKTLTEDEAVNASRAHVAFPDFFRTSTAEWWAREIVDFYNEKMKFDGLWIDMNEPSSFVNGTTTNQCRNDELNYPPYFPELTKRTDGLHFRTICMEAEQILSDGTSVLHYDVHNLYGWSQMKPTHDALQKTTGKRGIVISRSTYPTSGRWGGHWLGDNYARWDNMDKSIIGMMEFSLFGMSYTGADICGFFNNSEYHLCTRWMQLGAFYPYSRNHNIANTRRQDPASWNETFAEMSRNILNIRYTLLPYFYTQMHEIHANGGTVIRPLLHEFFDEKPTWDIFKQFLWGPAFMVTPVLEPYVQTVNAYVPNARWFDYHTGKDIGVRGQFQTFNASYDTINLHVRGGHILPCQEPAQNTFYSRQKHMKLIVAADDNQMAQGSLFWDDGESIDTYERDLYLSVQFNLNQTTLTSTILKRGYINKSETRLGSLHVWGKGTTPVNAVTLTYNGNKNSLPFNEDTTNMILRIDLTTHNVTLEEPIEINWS
Experimental: Inhibitory activity on human alpha-glucosidase was measured using differentiated Caco-2 cells as described previously with some modification. Briefly, Caco-2 cells were purchased from Riken Bioresource Research Center (Tsukuba, Japan) and cultured in Minimal Essential Medium (MEM) supplemented with 20% fetal bovine serum, 1% penicillin-streptomycin-glutamine, and 1% non-essential amino acids at 37 °C in an atmosphere of 5% CO2. After passaging, cells (2.0 × 10^4 cells/well) were seeded in 48-well plates and cultured for 14 days to differentiate into small intestinal epithelial-like cells. After 14 days, cells were washed twice with PBS, and 150 µL of sample solution at each concentration as well as 150 µL of 3 mM maltose were added. Each sample and maltose solution were dissolved in PBS. The cells were further incubated for 2 h at 37 °C in an atmosphere of 5% CO2. Then, 100 µL of cell culture supernatant was mixed with 150 µL of color reagent and measured at 505 nm through the spectrometer (Infinite 200 Pro MPlex, Tecan Ltd., Männedorf, Switzerland). The inhibitory activity of the sample was calculated in the same way as in the rat alpha-glucosidase experiment.

IC50 (rat alpha-glucosidase) [µM]	IC50 (human alpha-glucosidase) [µM]	SMILES
1200 ± 79.6		Oc1cc(O)c2c(c1)O[C@H](c1ccc(O)c(O)c1)[C@@H](O)C2 [(+)C, (+)-catechin]
112 ± 7.8		O=C(O[C@@H]1Cc2c(O)cc(O)cc2O[C@H]1c1ccc(O)c(O)c1)c1cc(O)c(O)c(O)c1 [Cg, (−)-catechin-3-gallate]
675 ± 15.7	134 ± 2.2	Oc1cc(O)c2c(c1)O[C@H](c1ccc(O)c(O)c1)[C@H](O)C2 [EC, (−)-epicatechin]
96.9 ± 4.5	78.4 ± 15.2	O=C(O[C@@H]1Cc2c(O)cc(O)cc2O[C@@H]1c1ccc(O)c(O)c1)c1cc(O)c(O)c(O)c1 [ECg, (−)-epicatechin-3-gallate]
46 ± 3.73	90.7 ± 15.8	O=C(O[C@@H]1Cc2c(O)cc(O)cc2O[C@@H]1c1cc(O)c(O)c(O)c1)c1cc(O)c(O)c(O)c1 [EGCg, (−)-epigallocatechin-3-gallate]
1030 ± 64.5		O=C(O)c1cc(O)c(O)c(O)c1 [GA, gallic acid, reference compound]
161 ± 2.4		O=C(O[C@@H]1Cc2c(O)cc(O)cc2O[C@H]1c1cc(O)c(O)c(O)c1)c1cc(O)c(O)c(O)c1 [GCg, (−)-gallocatechin-3-gallate]
2.17 ± 0.23		C[C@H]1O[C@H](O[C@H]2[C@H](O)[C@@H](O)[C@@H](O[C@H]3[C@H](O)[C@@H](O)C(O)O[C@@H]3CO)O[C@@H]2CO)[C@H](O)[C@@H](O)[C@@H]1N[C@H]1C=C(CO)[C@@H](O)[C@H](O)[C@H]1O (some centres unmarked) [acarbose, reference compound]

SMILES	IC50 (rat alpha-glucosidase) [µM]	IC50 (human alpha-glucosidase) [µM]
Oc1cc(O)c2c(c1)O[C@H](c1cc(O)c(O)c(O)c1)[C@H](O)C2 [EGC, (−)-epigallocatechin]	713 ± 35.3	214 ± 3.8
Oc1cc(O)c2c(c1)O[C@@H](c1cc(O)c(O)c(O)c1)[C@H](O)C2 [GC, (−)-gallocatechin]	798 ± 26.8	
